Read-outs that look alike come from different tables or passages of the source.

Holding throughout (assay): Post-emergence action, greenhouse pot test, visual scoring
What all share (type): in vivo

Assay [1] deals with Matricaria inodora (MATIN). The note with it: Tripleurospermum inodorum, read-out: % activity found; for inhibition at 30 g/ha / inhibition at 10 g/ha: MATIN; for inhibition at 30 g/ha: 30 g of ai/ha; for inhibition at 10 g/ha: 10 g of ai/ha. The protocol: (§1) Seeds or rhizome pieces of mono- and dicotyledonous harmful and useful plants were placed in peat pots (diameter 4 cm) filled with sandy loam and then covered with soil. The pots were kept in a greenhouse under optimum conditions. In addition, harmful plants encountered in paddy rice cultivation were cultivated in pots with a water level 2 cm above the soil surface.
(§2) About three weeks after the start of the cultivation, the test plants were treated at the 2- to 3-leaf stage. The herbicides, formulated as powder or liquid concentrates, were, either alone or in the combinations according to the invention, sprayed in various dosages on to the green parts of the plants using an application rate of 600 l of water/ha (converted). For further cultivation of the plants, the pots were then again kept under optimum conditions in a greenhouse.
(§3) The visual scoring of the herbicidal effects was carried out in intervals up to 21 days after the treatment. Scoring was carried out in percent in comparison to the untreated control plants. 0%=no herbicidal activity, 100%=complete herbicidal activity=complete kill.
(§4) The percentages from the treatments with the herbicides alone (=individual application) and with the combinations according to the invention (=mixtures) were employed to calculate interactions using the method of Colby. When the observed efficacies of the mixtures exceed the formal sum of the values of the tests with individual applications, they also exceed the expected value according to Colby, which is calculated using the formula below (cf. S. R. Colby; in Weeds 15 (1967) pp. 20 to 22):
(§5) • A, B=activity of components A and B in percent at a dosage of a and b g of ai/ha (=gramm of active substance per hectare), respectively. • E=expected value in % at a dosage of a+b g of ai/ha.

The subject of assay [2] is Lolium multiflorum (LOLMU). Particulars: read-out: % activity found; for inhibition at 30 g/ha: 30 g of ai/ha; for inhibition at 10 g/ha: 10 g of ai/ha. The protocol:
as §1, §2, §3, §4, §5

Assay [3] concerns Oryza sativa (ORYSA). The note with it: read-out: % activity found. On the procedure: as §1, §2, §3, §4, §5
Assay [4] deals with Triticum aestivum (TRZAS). Particulars: read-out: % activity found; for inhibition at 30 g/ha: 30 g of ai/ha. On the procedure: as §1, §2, §3, §4, §5
For assay [5], the system named is Cyperus esculentus (CYPES). Particulars: for (7) % activity found: CYPES, 21 DAT. On the procedure: as §1, §2, §3, §4, §5
Assay [6] deals with Viola tricolor (VIOTR). Particulars: read-out: % activity found; for inhibition at 10 g/ha / inhibition at 30 g/ha: VIOTR; for inhibition at 10 g/ha: 10 g of ai/ha; for inhibition at 30 g/ha: 30 g of ai/ha. On the procedure:
as §1, §2, §3, §4, §5

For assay [7], the system named is Alopecurus myosuroides (ALOMY). The note with it: 504 h, read-out: % activity found. On the procedure:
as §1, §2, §3, §4, §5

For assay [8], the system named is Zea mays (ZEAMX). The note with it: read-out: % activity found; for inhibition at 10 g/ha: 10 g of ai/ha. The protocol:
as §1, §2, §3, §4, §5

For assay [9], the system named is Avena fatua (AVEFA). The note with it: read-out: % activity found. The protocol:
as §1, §2, §3, §4, §5

In assay [10] the test system is Abuthilon theophrasti (ABUTH). Particulars: Abutilon theophrasti, read-out: % activity found; for inhibition at 10 g/ha / inhibition at 30 g/ha: ABUTH; for inhibition at 10 g/ha: 10 g of ai/ha; for inhibition at 30 g/ha: 30 g of ai/ha. On the procedure: as §1, §2, §3, §4, §5
Assay [11] concerns Amaranthus retroflexus (AMARE). The note with it: read-out: % activity found; for inhibition at 10 g/ha / inhibition at 30 g/ha: AMARE; for inhibition at 10 g/ha: 10 g of ai/ha; for inhibition at 30 g/ha: 30 g of ai/ha. On the procedure:
as §1, §2, §3, §4, §5

For assay [12], the system named is Pharbitis purpurea (PHBPU). The note with it: Ipomoea purpurea, read-out: % activity found; for inhibition at 10 g/ha / inhibition at 30 g/ha: PHBPU; for inhibition at 10 g/ha: 10 g of ai/ha; for inhibition at 30 g/ha: 30 g of ai/ha. On the procedure: as §1, §2, §3, §4, §5
Assay [13] has as its system Veronica persica (VERPE). The note with it: read-out: % activity found; for inhibition at 10 g/ha: 10 g of ai/ha. On the procedure: as §1, §2, §3, §4, §5
Assay [14] deals with Fallopia (ex Polygonum) convolvulus (POLCO). The note with it: read-out: % activity found. The protocol:
as §1, §2, §3, §4, §5

[15] abbreviates: Cyperus esculentus, 504 h, read-out: % activity found.

On to `CCOC(=O)C(C)OC(=O)c1cc(Oc2ccc(C(F)(F)F)cc2Cl)ccc1[N+](=O)[O-]` (racemic) [B1-5, (±)-2-ethoxy-1-methyl-2-oxoethyl 5-[2-chloro-4-(trifluoromethyl)phenoxy]-2-nitrobenzoate], for which the inhibition at 30 g/ha in assay [1] (504 h, 21 DAT) was found to be 80%; in [2] (504 h, 21 DAT), 20%; in assay [3] (240 h, ORYSA, 10 DAT, 30 g of ai/ha), 40%; in assay [4] (504 h, TRZAS, 21 DAT), 20%.

Consider `O=C(O)COc1ccc(Cl)cc1Cl` [B5-2, (2,4-dichlorophenoxy)acetic acid], for which the inhibition at 70 g/ha in assay [5] (setting [15]), in [7], in assay [8] (240 h), in assay [8] (504 h) and in [9] (504 h) was 0% throughout. Besides, the inhibition at 210 g/ha in [6] (504 h) stood at 60%; in assay [7], 0%; in [8] (240 h), 40%; in [9] (504 h), 0%; in assay [4] (240 h), 0%.

As for `C[C@@H](Oc1ccc(Oc2ccc(C#N)cc2F)cc1)C(=O)O` [B7-2, (2R)-2-[4-(4-cyano-2-fluorophenoxy)phenoxy]propanoic acid], the inhibition at 25 g/ha in assay [5] (setting [15]), in [1] (504 h), in [10] (504 h), in assay [11] (240 h), in assay [11] (504 h) and in assay [6] (504 h) was 0% throughout. The inhibition at 25 g/ha in assay [12] (240 h), in [12] (504 h), in [13] (504 h), in [14] (240 h), in assay [14] (504 h) and in assay [7] was 0% in each case. Besides, the inhibition at 25 g/ha is 70% in [8] (240 h), 70% in [8] (504 h), 0% in assay [9] (504 h) and 10% in assay [3] (504 h). Moreover, the inhibition at 75 g/ha in assay [5] (setting [15]), in assay [1] (504 h), in assay [10] (504 h), in [11] (504 h), in assay [6] (240 h) and in [6] (504 h) was 0% in each case. In addition, the inhibition at 75 g/ha in assay [12] (240 h) was determined as 20%; in assay [12] (504 h), 0%; in assay [13] (240 h) it was 0%; in assay [13] (504 h), 0%; in assay [14] (240 h), 0%; in [14] (504 h), 0%. The inhibition at 75 g/ha in assay [7] and in assay [3] (504 h) was 20% throughout.

Turning to `C[C@@H](Oc1ccc(Oc2nc3ccc(Cl)cc3o2)cc1)C(=O)O` [B7-4, (R)-2-[4-(6-chlorobenzoxazol-2-yloxy)phenoxy]propionic acid], the “(7) % activity found” value in [5] ((6) dose of B7-4 10, alone) turned out to be 0%; in assay [5] ((6) dose of B7-4 30, alone) it was 0%. Further, the inhibition at 10 g/ha turned out to be 0% in [1] (240 h, 10 DAT); 0% in assay [1] (504 h, 21 DAT); 0% in [10] (240 h, 10 DAT); 0% in assay [10] (504 h, 21 DAT); 0% in [11] (240 h, 10 DAT); 0% in assay [11] (504 h, 21 DAT). The inhibition at 10 g/ha in assay [6] (240 h, 10 DAT) stood at 0%; in assay [6] (504 h, 21 DAT), 0%; in assay [12] (240 h, 10 DAT) it was 0%; in assay [12] (504 h, 21 DAT), 0%; in [13] (240 h, VERPE, 10 DAT), 0%; in assay [13] (504 h, VERPE, 21 DAT) it was 0%. Also, the inhibition at 10 g/ha turned out to be 0% in assay [14] (504 h, POLCO, 21 DAT, 10 g of ai/ha); 30% in [7] (ALOMY, 21 DAT, 10 g of ai/ha); 30% in assay [8] (240 h, ZEAMX, 10 DAT); 20% in assay [8] (504 h, ZEAMX, 21 DAT); 20% in [2] (240 h, 10 DAT); 0% in assay [2] (504 h, 21 DAT). Also, the inhibition at 10 g/ha in assay [9] (240 h, AVEFA, 10 DAT, 10 g of ai/ha) was 0%; in [4] (240 h, TRZAS, 10 DAT, 10 g of ai/ha), 0%. Also, the inhibition at 30 g/ha in assay [1] (240 h, 10 DAT) came out at 0%; in assay [1] (504 h, 21 DAT), 0%; in assay [10] (240 h, 10 DAT), 0%; in assay [10] (504 h, 21 DAT), 0%; in assay [11] (240 h, 10 DAT) it was 0%; in [11] (504 h, 21 DAT), 0%. The inhibition at 30 g/ha in assay [6] (240 h, 10 DAT) came to 0%; in assay [6] (504 h, 21 DAT), 0%; in assay [12] (240 h, 10 DAT), 0%; in [12] (504 h, 21 DAT), 0%; in [13] (504 h, VERPE, 21 DAT, 30 g of ai/ha), 0%; in [14] (504 h, POLCO, 21 DAT, 30 g of ai/ha), 0%. Also, the inhibition at 30 g/ha in assay [7] (ALOMY, 21 DAT, 30 g of ai/ha) was 30%; in assay [8] (240 h, ZEAMX, 10 DAT, 30 g of ai/ha), 70%; in assay [2] (504 h, 21 DAT) it was 0%; in [9] (504 h, AVEFA, 21 DAT, 30 g of ai/ha), 0%; in assay [4] (240 h, TRZAS, 10 DAT), 0%.

The values above are taken from patent US20100075854A1, “HERBICIDE COMBINATION COMPRISING DIMETHOSXYTRIAZINYL-SUBSTITUTED DIFLUOROMETHANESULFONYLANILIDES” (Bayer CropScience AG, priority 2008, published 2010).
